# Measurements reported in patent US8318731B2, “Pyrrolopyrimidines” (Janssen Pharmaceutica NV, priority 2007, dated 2012).
# Tests used:
# [1] = system: H1299; assay: Cellular proliferation assay (Alamar blue), H1299; assay type: cell-based; conditions: Homo sapiens, NCI-H1299, H1299 cells; 10% FCS; 72 h with compound; Alamar blue 4 h; read-out: pIC50 H1299 (converted)
# Experimental: (§1) Cellular proliferation of these compounds was tested on a panel of different cell lines in the presence of 10% FCS serum (37° C. and 5% (v/v) CO2). In a first step these cells were seeded and incubated for 24 hours in the absence of compound. In the second step the cells were incubated for 72 hours with the compounds to be tested for 72 hours. The viable cell number was finally assessed in a standard Alamar blue cell viability assay.
# (§2) The viable cell number was assessed by incubation for either 4 h (HCT-116, H1299) 6 h (U87-MG) or 24 h (A2780, PC3, MDA-MB-231) with Alamar blue (Resazurin 9 μg/ml, K-Ferrocyanide 90 μM, K-Ferricyanide 90 μM) and the converted fluorescent product was quantified on a fluorescent plate readed (544 nm/590 nm). Effect of the compounds is calculated as of on control cells.
# [2] = target: T1, PLK4 (h) (Homo sapiens, UniProt O00444); assay: PLK-4 human kinase scintillation proximity assay (SPA); assay type: biochemical; conditions: 1 μM ATP, 60 minutes at r.t., read-out: PLK4 pIC50 (converted)
# T1 sequence (O00444 1-970): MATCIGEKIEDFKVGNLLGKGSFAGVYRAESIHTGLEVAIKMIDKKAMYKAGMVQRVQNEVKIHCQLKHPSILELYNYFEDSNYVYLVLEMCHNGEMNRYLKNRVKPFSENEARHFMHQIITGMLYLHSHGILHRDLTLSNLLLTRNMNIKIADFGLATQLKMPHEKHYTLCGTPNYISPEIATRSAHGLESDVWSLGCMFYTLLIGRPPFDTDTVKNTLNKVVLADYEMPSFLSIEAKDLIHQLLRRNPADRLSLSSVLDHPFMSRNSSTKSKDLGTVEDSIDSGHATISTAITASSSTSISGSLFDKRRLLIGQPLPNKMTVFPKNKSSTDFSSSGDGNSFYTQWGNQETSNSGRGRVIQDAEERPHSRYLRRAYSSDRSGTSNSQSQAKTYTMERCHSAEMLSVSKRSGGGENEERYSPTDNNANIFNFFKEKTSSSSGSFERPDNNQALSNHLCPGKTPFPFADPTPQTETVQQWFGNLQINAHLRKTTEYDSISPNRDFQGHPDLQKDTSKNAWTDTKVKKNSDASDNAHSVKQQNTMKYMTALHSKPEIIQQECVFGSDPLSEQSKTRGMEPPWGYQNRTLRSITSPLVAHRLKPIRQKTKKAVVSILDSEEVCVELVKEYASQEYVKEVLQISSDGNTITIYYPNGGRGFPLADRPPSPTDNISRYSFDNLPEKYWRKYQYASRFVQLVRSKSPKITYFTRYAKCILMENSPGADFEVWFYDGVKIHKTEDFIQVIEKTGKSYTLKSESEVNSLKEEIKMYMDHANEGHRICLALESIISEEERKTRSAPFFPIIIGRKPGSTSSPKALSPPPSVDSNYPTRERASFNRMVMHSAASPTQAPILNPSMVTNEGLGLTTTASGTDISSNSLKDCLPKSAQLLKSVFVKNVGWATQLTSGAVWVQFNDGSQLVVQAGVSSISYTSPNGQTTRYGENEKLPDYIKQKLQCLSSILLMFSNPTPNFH
# Experimental: The in vitro inhibition of a panel of kinases was assessed using either the scintillation proximity assay (SPA) as described by Cook, N. D. et al., Advances in Experimental Medicine and Biology (1991), 36; p. 525-528.
# In the SPA technology the activity of the kinase of interest is measured using an appropriate biotinylated substrate that is incubated with the aforementioned kinase protein in the presence of (^33P) radiolabeled ATP. (^33P) Phosphorylation of the substrate is subsequently measured through binding of the phosphorylated substrate to streptavidine coated beads that are based on the scintillant poly(vinyl toluene) (PVT-Beads). The scintillation intensity is detected by imaging on Leadseeker.
# All kinases are pre-diluted to a 10× working concentration prior to addition into the assay. The composition of the dilution buffer for each kinase is detailed below.
# In a final reaction volume of 30 μl, PLK4 (h) (19 μg/ml) is incubated with 50 mM Hepes pH 8.0, 10 mM MgCl2, 50 mM NaCl, 1 mM NaF, 1 mM DTT, 10 μM of peptide Biotin-RPRGQRDSSYYWE-OH, 1 μM ATP and 2 nM [γ-^33P-ATP] (6.0 μCi/ml). After incubation of 60 minutes at r.t., the reaction is stopped by addition of 40 μL of stop solution containing 8.7 mM EDTA, BSA 0.17%, 0.17% Triton X-100, 1.7 mg/ml SPA beads (GE-healthcare). The plate is centrifuged and read for Scintillation imaging on Leadseeker.
# [3] = system: A2780; assay: Cellular proliferation assay (Alamar blue), A2780; assay type: cell-based; conditions: Homo sapiens, A2780, A2780 cells; 10% FCS; 72 h with compound; Alamar blue 24 h; read-out: pIC50 A2780 (converted)
# Experimental: as §1, §2
# [4] = system: HCT-116; assay: Cellular proliferation assay (Alamar blue), HCT-116; assay type: cell-based; conditions: Homo sapiens; HCT-116 cells; 10% FCS; 72 h with compound; Alamar blue 4 h; read-out: pIC50 HCT-116 (converted)
# Experimental: as §1, §2
# [5] = system: U87-MG; assay: Cellular proliferation assay (Alamar blue), U87-MG; assay type: cell-based; conditions: Homo sapiens, U-87 MG; U87-MG cells; 10% FCS; 72 h with compound; Alamar blue 6 h; read-out: pIC50 U87MG (converted)
# Experimental: as §1, §2
# [6] = system: PC3; assay: Cellular proliferation assay (Alamar blue), PC3; assay type: cell-based; conditions: Homo sapiens, PC-3, PC-3 cells; 10% FCS; 72 h with compound; Alamar blue 24 h; read-out: pIC50 PC-3 (converted)
# Experimental: as §1, §2
# [7] = system: MDA-MB-231; assay: Cellular proliferation assay (Alamar blue), MDA-MB-231; assay type: cell-based; conditions: Homo sapiens, MDA-MB-231, MDA-MB-231 cells; 10% FCS; 72 h with compound; Alamar blue 24 h; read-out: pIC50 MDA/MB231 (converted)
# Experimental: as §1, §2
Compound,IC50 [1] [µM],IC50 [2] [µM],IC50 [3] [µM],IC50 [4] [µM],IC50 [5] [µM],IC50 [6] [µM],IC50 [7] [µM]
COc1ccc2cc1OCCCC(=O)N(C)CCN(C)Cc1c[nH]c3ncnc(c13)N2 [Compound 1],> 10,0.126,> 10,> 10,> 10,> 10,> 10
CN1CCN(C)C(=O)CCCCOc2cccc(c2)Nc2ncnc3[nH]cc(c23)C1 [Compound 2],> 10,3.16,> 10,> 10,> 10,> 10,> 10
COc1ccc2cc1OCC(=O)N[C@H](CO)CN(C)CCCc1c[nH]c3ncnc(c13)N2 [Compound 3],> 10,1.58,> 10,> 10,> 10,> 10,> 10
COc1ccc2cc1CN(C)CCC(=O)N(C)CCCc1c[nH]c3ncnc(c13)N2 [Compound 4],> 10,> 10,> 10,> 10,> 10,> 10,> 10
COc1ccc2cc1CN(C)CCCC(=O)N(C)CCCc1c[nH]c3ncnc(c13)N2 [Compound 5],> 10,> 10,> 10,> 10,> 10,> 10,> 10
COc1ccc2cc1OCCCNC(=O)CN(C)Cc1c[nH]c3ncnc(c13)N2 [Compound 6],1.58,0.501,1.58,1.26,1.58,3.98,5.01
CN1CCN(C)C(=O)CN(C)C(=O)CCc2cccc(c2)Nc2ncnc3[nH]cc(c23)C1 [Compound 8],> 10,> 10,> 10,> 10,> 10,> 10,> 10
COc1ccc2cc1OCC(=O)N(C(C)C)CCCN(C)Cc1c[nH]c3ncnc(c13)N2 [Compound 12],> 10,0.0794,5.01,7.94,6.31,> 10,> 10
CN1CCCN(C)C(=O)COc2cc(ccc2NC(=O)NC2CCCCC2)Nc2ncnc3[nH]cc(c23)C1 [Compound 13],3.98,0.0251,1,2,3.98,> 10,> 10
CN1CCCN(C)C(=O)COc2cc(ccc2Cl)Nc2ncnc3[nH]cc(c23)C1 [Compound 14],> 10,0.0501,3.98,0.631,0.794,> 10,> 10
COc1ccc(NC(=O)Nc2ccc3cc2OCC(=O)N(C)CCCN(C)Cc2c[nH]c4ncnc(c24)N3)cc1 [Compound 15],> 10,0.0251,0.794,0.794,2,> 10,> 10
COc1ccc2cc1OCCCCC(=O)N(C)CCCN(C)Cc1c[nH]c3ncnc(c13)N2 [Compound 16],> 10,0.126,> 10,> 10,> 10,> 10,> 10
COc1ccc2cc1OCCCC(=O)N(C)CCCN(C)Cc1c[nH]c3ncnc(c13)N2 [Compound 17],> 10,0.251,> 10,> 10,> 10,> 10,> 10
COc1ccc2cc1OCCCCCC(=O)N(C)CCCN(C)Cc1c[nH]c3ncnc(c13)N2 [Compound 18],> 10,0.398,> 10,> 10,> 10,> 10,> 10

# The next lines start with the values.
IC50 [1] [µM],IC50 [2] [µM],IC50 [3] [µM],IC50 [4] [µM],IC50 [5] [µM],IC50 [6] [µM],IC50 [7] [µM],Compound
> 10,0.316,> 10,> 10,> 10,> 10,> 10,CN1CCCN(C)C(=O)CCCCCOc2cc(ccc2Cl)Nc2ncnc3[nH]cc(c23)C1 [Compound 19]
10,0.631,> 10,7.94,> 10,> 10,> 10,CN1CCN(C)C(=O)CCc2cccc(c2)Nc2ncnc3[nH]cc(c23)C1 [Compound 20]
2,0.501,2,1.58,2,3.98,5.01,CN1CCCN(C)C(=O)CCc2cccc(c2)Nc2ncnc3[nH]cc(c23)C1 [Compound 21]
3.98,,1.58,5.01,3.16,5.01,10,Cc1nc2c3c(c[nH]c3n1)CN(C)CCCN(C)C(=O)COc1cc(ccc1Cl)N2 [Compound 148]
> 10,,> 10,> 10,> 10,> 10,> 10,CCOCCOc1cc(OC)c2cc1OCC(=O)N(C)CCCN(C)Cc1c[nH]c3ncnc(c13)N2 [Compound 151]
3.98,,2,1.58,3.16,6.31,7.94,COc1ccc2cc1N(C)CC(=O)N(C)CCCN(C)Cc1c[nH]c3ncnc(c13)N2 [Compound 153]
0.631,,0.251,0.316,1,5.01,5.01,CN1CCCN(C)C(=O)COc2cc(ccc2OCCOc2cc(C(F)(F)F)ccn2)Nc2ncnc3[nH]cc(c23)C1 [Compound 154]
6.31,,1.58,2,3.16,7.94,> 10,CN1CCCN(C)C(=O)COc2cc(ccc2OCCNc2ncccn2)Nc2ncnc3[nH]cc(c23)C1 [Compound 159]
